# US5124326A, “Pharmaceutically efficacious pteridine derivatives” (Roehm GmbH Chemische Fabrik, priority 1989, dated 1992)
# Read-outs that look alike come from different tables or passages of the source.
# Tests used:
# [1] = distribution coefficient log P; format: physicochemical; conditions: for logD: read-out: lipophilicity log P; for logP: from the preparation examples
# urine volume, Na^+, K^+ = test: diuresis test in rats (urine volume, Na+, K+ excretion; dose/response, ED50); format: in vivo, Male Wister rats; conditions: for ED50: Rattus norvegicus; for ED50 / Na^+/K^+ quotient i.v. / Na^+/K^+ quotient p.o.: rats
# Protocol: The compounds of formula I and their acid addition salts, with physiologically tolerable acids are quite suitable for peroral and intravenous medication. The diuresis tests were conducted according to the following method. Diuresis Tests/Method Male Wister rats, weighing approximately 130 g, were used in the tests. Food had been withdrawn from the rats for 18 hours. Immediately before the intravenous administration of the test substance, they were fed orally a quantity of 20 ml/kg of 0.9% NaCl solution. […] Under a slight anesthesia, administration was by the caudal vein. Generally six experimental animals were used per test. The peroral administration was by means of probang in the gastrointestinal region. The substances were administered in a mixture comprising Tylose® and physiological NaCl solution, which serves simultaneously as the hydration agent ([…]). The animals were placed individually into diuresis cages and urine was collected after 2.5 or 3 or 6 hours. The electrolytes (Na^+ K^+, Mg^+2) were determined by means of flame photometry and by means of atomic absorption measurement with the FL6 automatic electrolyte equipment from Zeiss/Oberkochen. Curves for dose/response correlations were obtained with the aid of non-linear regression analysis with the NONLIN computer program by C. Daniel and F. S. Wood in "Fitting Equations to Data", J. Wiley & Sons, New York, 1980. Thus, the characteristic value ED50 (=potency) applied to determine the diuretic efficacy is defined as the quantity of active substance per kg of body weight, which is necessary for the semi-maximum effect.
# [2] = solubility in isotonic phosphate buffer pH 7.4; format: physicochemical; conditions: for solubility: aqueous buffer
# [3] = resorption rate from renal recovery following p.o. and i.v. administration; format: in vivo, Male Wister rats; conditions: rat, urine, po; quotient of urinary recovery p.o./i.v.; rats
# Protocol: Male Wister rats, weighing approximately 130 g, were used in the tests. Food had been withdrawn from the rats for 18 hours. Immediately before the intravenous administration of the test substance, they were fed orally a quantity of 20 ml/kg of 0.9% NaCl solution. […] Under a slight anesthesia, administration was by the caudal vein. Generally six experimental animals were used per test. The peroral administration was by means of probang in the gastrointestinal region. The substances were administered in a mixture comprising Tylose® and physiological NaCl solution, which serves simultaneously as the hydration agent ([…]). The animals were placed individually into diuresis cages and urine was collected after 2.5 or 3 or 6 hours. The electrolytes (Na^+ K^+, Mg^+2) were determined by means of flame photometry and by means of atomic absorption measurement with the FL6 automatic electrolyte equipment from Zeiss/Oberkochen. The renal recovery of the test substances serves as a means of measuring resorption following oral administration. The resorption rate is determined from the quotients of the recovery rates following peroral (p.o.) and intravenous (i.v.) administration, as given in percent. The recovery rate notes the renally excreted quantity based on the medicated quantity of the active substances. The concentration of the test substances in the urine of the animals is determined in accordance with thin-layer chromatographic separation by means o spectrophotometry.
# metabolization = conditions: in vivo
# [4] = iv, duration 2.5 h, read-out: ED50 (potency), urine K^+
# [5] = iv, duration 2.5 h, read-out: ED50 (potency), urine Na^+
# [6] = iv, duration 2.5 h, read-out: ED50 (potency), urine volume
# [7] = iv, duration 6 h, read-out: ED50 (potency), urine K^+
# [8] = iv, duration 6 h, read-out: ED50 (potency), urine Na^+
# [9] = iv, duration 6 h, read-out: ED50 (potency), urine volume
# [10] = po, duration 3 h, read-out: ED50 (potency), urine K^+
# [11] = po, duration 3 h, read-out: ED50 (potency), urine Na^+
# [12] = po, duration 3 h, read-out: ED50 (potency), urine volume
# [13] = po, duration 6 h, read-out: ED50 (potency), urine K^+
# [14] = po, duration 6 h, read-out: ED50 (potency), urine Na^+
# [15] = po, duration 6 h, read-out: ED50 (potency), urine volume
# [16] = isotonic phosphate buffer, pH = 7.4, read-out: solubility
# [17] = isotonic phosphate buffer pH 7.4, read-out: solubility in isotonic phosphate buffer
structure (smiles),measurement,setting,value
"Nc1nc(N)c2nc(-c3ccccc3)c(N)nc2n1 [Triamterene, 2,4,7-triamino-6-phenylpteridine, reference compound]",lipophilicity log P,[1]; pH = 7.4,1.26
same,ED50,"urine volume, Na^+, K^+; [4]",11.2 µmol/kg
same,ED50,"urine volume, Na^+, K^+; [5]",2.38 µmol/kg
same,ED50,"urine volume, Na^+, K^+; [6]",13.9 µmol/kg
same,ED50,"urine volume, Na^+, K^+; [7]",9.79 µmol/kg
same,ED50,"urine volume, Na^+, K^+; [8]",10.6 µmol/kg
same,ED50,"urine volume, Na^+, K^+; [9]",10.6 µmol/kg
same,ED50,"urine volume, Na^+, K^+; [10]",3.38 µmol/kg
same,ED50,"urine volume, Na^+, K^+; [11]",6.17 µmol/kg
same,ED50,"urine volume, Na^+, K^+; [12]",6.4 µmol/kg
same,ED50,"urine volume, Na^+, K^+; [13]",8.39 µmol/kg
same,ED50,"urine volume, Na^+, K^+; [14]",5.06 µmol/kg
same,ED50,"urine volume, Na^+, K^+; [15]",6.57 µmol/kg
same,Na^+/K^+ quotient i.v.,"urine volume, Na^+, K^+",8
same,Na^+/K^+ quotient p.o.,"urine volume, Na^+, K^+",6
same,solubility,[2]; [16],21 µg/mL
same,Fa,[3],~80%
"CN(C)Cc1ccc(-c2nc3c(N)nc(N)nc3nc2N)cc1 [compound IA, 2,4,7-Triamino-6-[4-(dimethylaminomethyl)phenyl]pteridine]",logD,[1]; pH = 7.4,-0.36
same,Na^+/K^+ quotient i.v.,"urine volume, Na^+, K^+",9
same,Na^+/K^+ quotient p.o.,"urine volume, Na^+, K^+",18
same,solubility,[2]; [16],580 µg/mL
same,Fa,[3],11%
"Nc1nc(N)c2nc(-c3ccc(CN4CCC(Cc5ccccc5)CC4)cc3)c(N)nc2n1 [compound IB, 2,4,7-Triamino-6-[4-(4-benzylpiperidinomethyl)phenyl]pteridine]",logD,[1]; pH = 7.4,2.7
same,Na^+/K^+ quotient i.v.,"urine volume, Na^+, K^+",17
same,Na^+/K^+ quotient p.o.,"urine volume, Na^+, K^+",4
same,solubility,[2]; [17],1.1 µg/mL
same,Fa,[3],< 1%
"CC(C)N(Cc1ccccc1)Cc1ccc(-c2nc3c(N)nc(N)nc3nc2N)cc1 [compound IC, 2,4,7-Triamino-6-[4-(N-benzyl-N-isopropylaminomethyl)phenyl]pteridien]",logD,[1]; pH = 7.4,3.2
same,metabolization,metabolization,is metabolized quantitatively
same,Na^+/K^+ quotient i.v.,"urine volume, Na^+, K^+",7
same,Na^+/K^+ quotient p.o.,"urine volume, Na^+, K^+",13
same,solubility,[2]; [16],1.9 µg/mL
"Nc1nc(N)c2nc(-c3ccc(CN4CCCCC4)cc3)c(N)nc2n1 [compound ID, 2,4,7-Triamino-6-[4-(piperidinomethyl)phenyl]pteridine]",logD,[1]; pH = 7.4,0.2
same,Na^+/K^+ quotient i.v.,"urine volume, Na^+, K^+",37
same,Na^+/K^+ quotient p.o.,"urine volume, Na^+, K^+",7
same,solubility,[2]; [16],76 µg/mL
same,Fa,[3],19%
"CC1CCN(Cc2ccc(-c3nc4c(N)nc(N)nc4nc3N)cc2)CC1 [compound IE, 2,4,7-Triamino-6-[4-(4-methylpiperidinomethyl)phenyl]pteridine]",logD,[1]; pH = 7.4,0.89
same,metabolization,metabolization,No metabolization
same,ED50,"urine volume, Na^+, K^+; [4]",5.4 µmol/kg
same,ED50,"urine volume, Na^+, K^+; [5]",3.13 µmol/kg
same,ED50,"urine volume, Na^+, K^+; [6]",2.65 µmol/kg
same,ED50,"urine volume, Na^+, K^+; [7]",5.9 µmol/kg
same,ED50,"urine volume, Na^+, K^+; [8]",12.7 µmol/kg
same,ED50,"urine volume, Na^+, K^+; [9]",8.24 µmol/kg
same,ED50,"urine volume, Na^+, K^+; [10]",2.16 µmol/kg
same,ED50,"urine volume, Na^+, K^+; [11]",9.49 µmol/kg
same,ED50,"urine volume, Na^+, K^+; [12]",11.8 µmol/kg
same,ED50,"urine volume, Na^+, K^+; [13]",2.41 µmol/kg
same,ED50,"urine volume, Na^+, K^+; [14]",12.7 µmol/kg
same,ED50,"urine volume, Na^+, K^+; [15]",14.8 µmol/kg
same,potassium-saving potency in comparison to Triamterene,"urine volume, Na^+, K^+; following peroral administration, vs Triamterene",higher potassium-saving potency
same,Na^+/K^+ quotient i.v.,"urine volume, Na^+, K^+",27
same,Na^+/K^+ quotient p.o.,"urine volume, Na^+, K^+",14
same,solubility,[2]; [16],139 µg/mL
same,increased solubility in comparison to Triamterene,"[2]; pH 7.4 in phosphate buffer, vs Triamterene",6.5 fold
same,Fa,[3],31%
"CC1CCCC(C)N1Cc1ccc(-c2nc3c(N)nc(N)nc3nc2N)cc1 (stereo not drawn) [compound IF, 2,4,7-Triamino-6-[4-(2,6-dimethylpiperidinomehyl)phenyl]pteridine]",logD,[1]; pH = 7.4,0.68
same,Na^+/K^+ quotient i.v.,"urine volume, Na^+, K^+",21
same,Na^+/K^+ quotient p.o.,"urine volume, Na^+, K^+",15
same,solubility,[2]; [16],25 µg/mL
same,Fa,[3],33%
"CC1CC(C)CN(Cc2ccc(-c3nc4c(N)nc(N)nc4nc3N)cc2)C1 (stereo not drawn) [compound IG, 2,4,7-Triamino-6-[4-(3,5-dimethylpiperidinomethyl)phenyl]pteridine]",logD,[1]; pH = 7.4,1.74
same,Na^+/K^+ quotient i.v.,"urine volume, Na^+, K^+",39
same,Na^+/K^+ quotient p.o.,"urine volume, Na^+, K^+",7
same,solubility,[2]; [16],13 µg/mL
same,Fa,[3],23%
"CN(C)CCCc1ccc(-c2nc3c(N)nc(N)nc3nc2N)cc1 [compound IH, 2,4,7-Triamino-6-[40(3-dimethylaminopropyl)phenyl]pteridine]",logP,[1],-0.6
same,logD,[1]; pH = 7.4,-0.6
same,ED50,"urine volume, Na^+, K^+; [4]",1.41 µmol/kg
same,ED50,"urine volume, Na^+, K^+; [5]",1.44 µmol/kg
same,ED50,"urine volume, Na^+, K^+; [6]",1.23 µmol/kg
same,ED50,"urine volume, Na^+, K^+; [7]",1.3 µmol/kg
same,ED50,"urine volume, Na^+, K^+; [8]",1.83 µmol/kg
same,ED50,"urine volume, Na^+, K^+; [9]",1.7 µmol/kg
same,Na^+/K^+ quotient i.v.,"urine volume, Na^+, K^+",12
same,Na^+/K^+ quotient p.o.,"urine volume, Na^+, K^+",7
same,solubility,[2]; [17],2000 µg/mL
same,Fa,[3],3%
"CN(C)CCc1ccc(-c2nc3c(N)nc(N)nc3nc2N)cc1 [compound IJ, 2,4,7-Triamino-6-[4-(2-dimethylaminoethyl)phenyl]pteridine]",logP,[1],-0.59
same,logD,[1]; pH = 7.4,-0.59
same,ED50,"urine volume, Na^+, K^+; [4]",1.04 µmol/kg
same,ED50,"urine volume, Na^+, K^+; [5]",1.63 µmol/kg
same,ED50,"urine volume, Na^+, K^+; [6]",2.36 µmol/kg
same,ED50,"urine volume, Na^+, K^+; [7]",2.6 µmol/kg
same,ED50,"urine volume, Na^+, K^+; [8]",1.64 µmol/kg
same,ED50,"urine volume, Na^+, K^+; [9]",2.61 µmol/kg
same,Na^+/K^+ quotient i.v.,"urine volume, Na^+, K^+",10
same,Na^+/K^+ quotient p.o.,"urine volume, Na^+, K^+",6
same,solubility,[2]; [17],2200 µg/mL
same,Fa,[3],4%
"CC1CCCC(C)N1CCCc1ccc(-c2nc3c(N)nc(N)nc3nc2N)cc1 (stereo not drawn) [compound IL, 2,4,7-Triamino-6-[4-(3-(2,6-dimethylpiperidino)propyl)phenyl]pteridine]",logD,[1]; pH = 7.4,0.04
same,Na^+/K^+ quotient i.v.,"urine volume, Na^+, K^+",170
same,Na^+/K^+ quotient p.o.,"urine volume, Na^+, K^+",8
same,solubility,[2]; [16],1500 µg/mL
same,Fa,[3],3%
"CC1CC(C)CN(CCCc2ccc(-c3nc4c(N)nc(N)nc4nc3N)cc2)C1 (stereo not drawn) [compound IM, 2,4,7-Triamino-6-[4-(3-(3,5-dimethylpiperidino)propyl)phenyl]pteridine]",logP,[1],1.18
same,logD,[1]; pH = 7.4,1.18
same,Na^+/K^+ quotient i.v.,"urine volume, Na^+, K^+",128
same,Na^+/K^+ quotient p.o.,"urine volume, Na^+, K^+",27
same,solubility,[2]; [17],135 µg/mL
same,Fa,[3],7%
